Patent US20220031605A1, “TARGETED DRUG DELIVERY SYSTEM TO BE USED IN TREATING OSTEOMYELITIS” (EGE UNIVERSITESI, priority 2018, published 2022)

Tested on: Staphylococcus Aureus
Experiment: In vivo osteomyelitis model (Staphylococcus Aureus injected to proximal tibia), radiograph and hematological analysis
Set-up: species or system Wistar albino rats
Settings: rat osteomyelitis model
Protocol: Wistar albino rats were operated on, and osteomyelitis model was established by injecting Staphylococcus Aureus pathogen to the proximal tibia. In order to determined that the osteomyelitis model was formed, Xray (Radiograph) image was taken. The animals that were determined to have osteomyelitis, were separated into 3 groups, as the gelatin nanoparticle comprising gentamicin (I), free drug (II) and control (III) groups, and they were included in the treatment with 2-4 injections a weak. 100-300 μl, gelatin nanoparticle comprising gentamicin, free form (commercial gentamicin and physiological saline solution was injected intravenously into the tail vein of the groups I, II, and III respectively. On the 14th day following the commencement of treatment, a radiograph was taken in order to track the treatment process. Hematological analysis was carried out during the treatment and after the treatment. The lymphocyte reference range for rats was 1.4-9.4×10^3/μL. As a result of the haemogram carried out on healthy rats, the lymphocyte value was 7.4×10^3/μL.

gentamicin [Free gentamicin]
Lymphocyte number following 6 dose stherapy (intravenous, tail vein, after 6 doses, reference range 1.4-9.4, healthy rats 7.4): 12.6 10^3/μL
Radiograph finding after therapy (radiograph following 6 doses of therapy, compared with image 14 days after model establishment): abscess was present, bone integrity was not yet formed and healing was only present on the periost
